Assay results taken from US20150087673A1, “METHODS FOR USING AND BIOMARKERS FOR AMPK-ACTIVATING COMPOUNDS” (RIGEL PHARMACEUTICALS, INC., priority 2013, published 2015).

Columns and labels:
AMPK [1] = experiment: AMPK activation assay (enzyme-linked immunosorbent assay); format: cell-based
Outline: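 Kit-based immunoassay; compounds screened as activators; standard reagents and protocol.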

db/db mice = experiment: [U-13C]-palmitate tracer analysis (13CO2/12CO2 enrichment) in db/db mice; format: in vivo, mouse
Excerpt: The elevated levels of BHBA detected by the global metabolite profiling are an indirect indicator of an increase in lipid oxidation. […] Appearance of ^13CO2 occurs via β-oxidation of the labeled palmitate to release ^13C-acetyl CoA, which must pass through one round of the TCA cycle before the labeled carbon can be given off as ^13CO2. An increased β-oxidation rate will result in a corresponding increase in ^13CO2 enrichment. In agreement with the elevation in relative BHBA levels detected in liver, adipose, and skeletal muscle tissues, an increase in ^13CO2 enrichment is observed for compound 309 treatment across all three tissues at both 60 and 120 minutes after palmitate administration. Ratios of ^13CO2 to ^12CO2 were higher for all treatment groups, including the vehicle, at 120 minutes compared to 60 minutes after palmitate feeding (FIG. 2). This time-dependent elevation was due to the slow absorption kinetics of the orally administered tracer suspension.
Male db/db mice (8 weeks) were orally gavaged once daily with vehicle, 5 mg/kg compound 309, or 10 mg/kg compound 309. Thirty minutes after dosing at day 8, 0.5 mg/kg of the metabolic tracer was administered, either via intraperitoneal injection for [U-^13C]-glucose or oral gavage for [U-^13C]-palmitate, followed by collection of liver, muscle, adipose tissue, and plasma at the timepoints indicated in the figure legends. Frozen samples were sent to SiDMAP, LLC (Los Angeles, Calif.) for isotope tracer analysis [Boros L G, Huang D, Heaney A P (2012) Fructose Drives Glucose via Direct Oxidation and Promotes Palmitate/Oleate Co-Release from Hepg2 Cells: Relevance with the Randle Cycle. […]
The elevated levels of BHBA detected by the global metabolite profiling are an indirect indicator that compound 309 treatment increases lipid oxidation. […] In agreement with the elevation in relative BHBA levels detected in liver, adipose, and skeletal muscle tissues, an increase in ^13CO2 enrichment is observed for compound 309 treatment across all three tissues at both 60 and 120 minutes after palmitate administration. […]

[2] = Compound plasma levels after oral dosing; format: in vivo, mouse
Description: Metabolite profiling of tissues from db/db mice orally dosed with either vehicle or 10 mg/kg compound 309 was used to characterize in detail the effects of the present AMPK activators on nutrient pathways in a commonly used mouse model of type 2 diabetes. […] Since AMPK activation results in both acute and chronic changes to metabolic pathways, samples from non-fasted mice treated for three days with compound 309 were analyzed. Samples were collected thirty minutes after compound dosing when compound 309 plasma levels as well as tissue AMPK activation were maximal.

AMPK [3] = experiment: AMPK activation in liver and muscle lysates after a single oral administration; format: in vivo, mouse; conditions: normal C57BL/6J mice, single oral administration of 10 mg/kg

EC50 (AMPK [1]): < 500 nM
time after compound dosing when plasma levels were maximal [2]: thirty
Structure (SMILES): COc1ccc(C(=O)C2CCN(C(=O)c3ccc(C(=O)NC4CCN(Cc5ccc(C#N)cc5)CC4)cn3)CC2)cc1 [Compound 309, N-(1-(4-cyanobenzyl)piperidin-4-yl)-6-(4-(4-methoxybenzoyl)piperidine-1-carbonyl)nicotinamide]
13CO2 enrichment after [U-13C]-palmitate (db/db mice; liver, adipose and skeletal muscle, 60 and 120 minutes after palmitate administration, treated one week): increase
fatty acid oxidation (db/db mice; liver, skeletal muscle and adipose tissue, chronic treatment of db/db mice): directly upregulated
dose-dependence of 13CO2 enrichment after [U-13C]-palmitate (db/db mice; skeletal muscle, 5 and 10 mg/kg): no dose-dependence
AMPK activation in liver and muscle lysates (AMPK [3]): robust AMPK activation
